Consider 12 molecules from US9296691B2, “Inhibitors of p75 receptor and their uses” (Horacio Uri Saragovi, priority 2010, dated 2016).

For one assay, the system named is nnr5 cells. The experiment in a line: Pro-NTF killing assay (MTT), nnr5 cells. In kind it is cell-based. The settings on record: 50 nM, 72 hours, p<0.05. The procedure:
(§1) The effect of I-B on the pro-apoptotic function of pro-NGF or pro-BDNF was tested in functional MTT assays measuring cell metabolism (FIG. 1B).
(§2) Cells (5,000 cells/well) were cultured in 96-well plates (Falcon, Lincoln Park, N.J.) in normal culture media (RPMI1640, Hepes, Glutamine, 5% serum). Wells were supplemented with NGF, BDNF, pro-NGF, or pro-BDNF (Alomone Labs) (50 nM final), in the presence or absence of I-B (20 μM final). Wells containing all culture conditions but no cells were used as blanks. The growth/survival profile of the cells was quantified using MTT (Sigma) 72 hours after plating. Optical density readings of MTT were done in a Benchmark Plus microplate Spectrophotometer (BioRad) at 595 nm with blanks subtracted.

The test system of another assay is B104 cells. The experiment in a line: Pro-NTF killing assay (MTT), B104 cells. In kind it is cell-based. The settings on record: 50 nM, 72 hours, p<0.05. The procedure: as §1, §2
The next assay deals with T1, p75-Fc (Homo sapiens, UniProt P08138).
T1 construct: purchased R&D
T1 sequence (P08138 29-250 limits assumed): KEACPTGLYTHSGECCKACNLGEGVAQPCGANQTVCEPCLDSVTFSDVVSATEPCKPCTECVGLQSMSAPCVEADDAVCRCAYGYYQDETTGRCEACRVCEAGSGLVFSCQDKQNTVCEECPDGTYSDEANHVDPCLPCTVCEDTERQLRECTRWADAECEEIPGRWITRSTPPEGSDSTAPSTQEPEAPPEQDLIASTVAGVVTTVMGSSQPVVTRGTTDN
Put plainly: Competitive ELISA, p75-Fc binding to immobilized NGF. The settings on record: 0.75 h; binding to immobilized NGF, no cpd = 100%; p75-Fc 50 nM; as described for FIG. 1A (compounds 30 μM); below 100% indicates inhibition. The procedure:
(§3) The effect of compounds I-B and LM-24 on the binding between NGF and p75 was tested in competitive ELISA assays, where the antagonists prevent soluble p75 from binding to immobilized NGF. The selectivity of antagonism was evaluated by lack of effect upon NGF-TrkA or lack of effect between NGF and anti-NGF monoclonal antibody (mAb) NGF30 interactions (FIG. 1A).
The compound LM-24 has been reported by others (Massa et al., 2006). Binding studies were carried out with all the compounds using I-B as reference.
(§4) Competitive ELISAs were performed as described (Saragovi et al., 1998). The procedure immobilized 50 ng/well NGF, or pro-NGF (Alomone Labs, Israel) onto polystyrene 96-well microtest plates, with washing and blocking with binding buffer (BB; phosphate buffered saline containing 0.5% bovine serum albumin). The following primary reagents in BB were added: recombinant chimeric p75-Fc or recombinant chimeric TrkA-Fc (R&D), or anti-NGF mAb NGF30 (Saragovi et al., 1998); each at 50 nM. The competitors I-B and the other test compounds (or control LM-24) were added at the indicated concentrations, and the plates were incubated for 45 minutes. After washing 3× in BB, HRP-conjugated secondary reagents (Sigma) were added for 30 min (goat anti-human Fc for p75-Fc and for TrkA-Fc; and goat anti-rat Ab for NGF30 mAb), and then wells were washed 3× in BB and 1× in PBS. Peroxidase activity was determined colorimetrically using the substrate TMB One Solution (Promega). The reaction was stopped with 0.5 N H2SO4 and the plates were read at 450 nm (Benchmark Plus, Bio-Rad). Assays were repeated n>4 times, with replicates of 4 wells each assay. […] Wells with no NGF immobilized but with all other reagents added were treated as background (<15% of maximal signals) and standardized to 0% binding.
A general note: In an ELISA, binding on a coated surface is turned into a signal by an enzyme label.

For a further assay, the target named is T2, TrkA-Fc (Homo sapiens, UniProt P04629).
T2 construct: purchased R&D
The experiment in a line: Competitive ELISA, TrkA-Fc binding to immobilized NGF (selectivity control). The settings on record: binding to immobilized NGF, no cpd = 100%; TrkA-Fc 50 nM; as described for FIG. 1A. On the procedure: as §3, §4

In another assay the test system is anti-NGF mAb NGF30. Put plainly: Competitive ELISA, anti-NGF mAb NGF30 binding to immobilized NGF (selectivity control). The settings on record: binding to immobilized NGF, no cpd = 100%; mAb NGF30 50 nM; as described for FIG. 1A. On the procedure:
as §3, §4

T2 sequence (P04629 33-423 limits assumed): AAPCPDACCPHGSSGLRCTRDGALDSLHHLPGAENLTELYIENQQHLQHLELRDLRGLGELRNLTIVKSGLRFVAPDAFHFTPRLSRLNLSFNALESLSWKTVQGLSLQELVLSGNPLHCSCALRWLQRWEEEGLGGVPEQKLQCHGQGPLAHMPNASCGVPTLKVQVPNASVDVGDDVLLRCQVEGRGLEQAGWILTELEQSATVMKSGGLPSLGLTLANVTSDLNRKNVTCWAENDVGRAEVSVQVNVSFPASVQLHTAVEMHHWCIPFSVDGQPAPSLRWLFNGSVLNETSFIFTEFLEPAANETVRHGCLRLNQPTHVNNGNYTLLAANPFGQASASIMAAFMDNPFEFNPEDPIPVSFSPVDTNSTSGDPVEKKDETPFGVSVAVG

Turning to “Pro-NGF: precursor of nerve growth factor (Alomone Labs), pro-apoptotic p75 ligand”, the “cell viability (MTT), growth factor alone” value with nnr5 cells and in the assay with B104 cells was “reduced the viability” throughout.
Usually remaining activity stands for what remains of the control signal, in per cent. Read a low remaining activity as a large loss of activity. Molecule `CCCn1c(=O)c2c(ncn2CC(=O)OC)n(CCC)c1=O` [II-N, Methyl 2-(2,6-dioxo-1,3-dipropyl-2,3-dihydro-1H-purin-7(6H)-yl)acetate] yielded a remaining activity at 30 µM at p75-Fc of 83%.
On to `CC(C)NC(=O)N(C(=O)CCc1c[nH]c2ccccc12)C(C)C` [I-R, 3-(1H-indol-3-yl)-N-isopropyl-N-(isopropylcarbamoyl)propanamide], for which, on p75-Fc, the remaining activity at 30 µM came to 59%.
The same measure, in the same setting: next, `Cc1ccc(NC(=O)N(C(=O)CCc2c[nH]c3ccccc23)c2ccc(C)cc2)cc1` [I-S, 3-(1H-indol-3-yl)-N-p-tolyl-N-(p-tolylcarbamoyl)propanamide]: 56%.
The molecule `Cn1c(=O)c2c(ncn2CC(=O)N(C(=O)NC2CCCCC2)C2CCCCC2)n(C)c1=O` [I-G] registered a remaining activity at 30 µM on p75-Fc of 62%. Besides, the “TrkA-Fc binding AVERAGE” value on TrkA-Fc was 99%.
As for `Cn1c(=O)c2c(ncn2CC(=O)NCCC(F)(F)F)n(C)c1=O` [I-F, 2-(1,3-dimethyl-2,6-dioxo-2,3-dihydro-1H-purin-7(6H)-yl)-N-(3,3,3-trifluoropropyl)acetamide], the remaining activity at 30 µM on p75-Fc was determined as 73%. For the same molecule, on TrkA-Fc, the “TrkA-Fc binding AVERAGE” value is on record as 91%.
Regarding `CC(C)NC(=O)N(C(=O)Cc1c[nH]c2ccccc12)C(C)C` [I-Q, 2-(1H-indol-3-yl)-N-isopropyl-N-(isopropylcarbamoyl)acetamide], the remaining activity at 30 µM at p75-Fc was determined as 53%.
`COC(=O)Cn1cnc2c1c(=O)n(C)c(=O)n2C` [II-H] came in with a remaining activity at 30 µM at p75-Fc of 72%. The “TrkA-Fc binding AVERAGE” value on TrkA-Fc came to 94%.
On to `Cn1c(=O)c2c(ncn2CC(=O)OCCCN)n(C)c1=O` [II-D, 3′-Aminopropyl (1,3-dimethyl-2,6-dioxo-2,3-dihydro-1H-purin-7(6H)-yl)acetate], for which the remaining activity at 30 µM on p75-Fc stood at 69%. Moreover, the “TrkA-Fc binding AVERAGE” value at TrkA-Fc came out at 116%. Further, the “NGF30 binding AVERAGE” value with anti-NGF mAb NGF30 stood at 91%.
In the case of `Cn1c(=O)c2c(ncn2CC(=O)OCCCNC(=O)OCc2ccccc2)n(C)c1=O` [II-E, 3′-(Benzyloxycarbonylamino)propyl (1,3-dimethyl-2,6-dioxo-2,3-dihydro-1H-purin-7(6H)-yl)acetate], on p75-Fc, the remaining activity at 30 µM was found to be 56%. Further, the “TrkA-Fc binding AVERAGE” value on TrkA-Fc was determined as 94%. Besides, in the assay with anti-NGF mAb NGF30, the “NGF30 binding AVERAGE” value turned out to be 89%.
The corresponding values for `Cn1c(=O)c2c(ncn2CC(=O)NCCCC(F)(F)F)n(C)c1=O` [I-A, 2-(1,3-dimethyl-2,6-dioxo-2,3-dihydro-1H-purin-7(6H)-yl)-N-(4,4,4-trifluorobutyl)acetamide] are 74%, 105% and 86%.

B1: pro-BDNF: precursor of brain derived neurotrophic factor (Alomone Labs), pro-apoptotic p75 ligand (protein, UniProt P23560 19-247, looked up)
pro-form: APMKEANIRGQGGLAYPGVRTHGTLESVNGPKAGSRGLTSLADTFEHVIEELLDEDQKVRPNEENNKDADLYTSRVMLSSQVPLEPPLLFLLEEYKNYLDAANMSMRVRRHSDPARRGELSVCDSISEWVTAADKKTAVDMSGGTVTVLEKVPVSKGQLKQYFYETKCNPMGYTKEGCRGIDKRHWNSQCRTTQSYVRALTMDSKKRIGWRFIRIDTSCVCTLTIKRGR
modifications: pro-form
notes: precursor of brain derived neurotrophic factor (Alomone Labs), pro-apoptotic p75 ligand
As for B1, the “cell viability (MTT), growth factor alone” value in the assay on nnr5 cells and in the assay with B104 cells was “reduced the viability” throughout.
